# Assay results as given in ChEMBL document CHEMBL2424514, “Prediction of glucagon receptor antagonist activities of some substituted imidazoles using combined radial basis function neural network and density functional theory” (Med Chem Res, 2013).
# pIC50: −log10 of the molar value.
# Molecular target: Glucagon receptor (Homo sapiens, UniProt P47871)
# Experiment: Inhibition of human glucagon receptor expressed in CHO cell membranes by radioligand displacement assay
# Assay type: cell-based
# Glucagon receptor, sequence (P47871 whole entry): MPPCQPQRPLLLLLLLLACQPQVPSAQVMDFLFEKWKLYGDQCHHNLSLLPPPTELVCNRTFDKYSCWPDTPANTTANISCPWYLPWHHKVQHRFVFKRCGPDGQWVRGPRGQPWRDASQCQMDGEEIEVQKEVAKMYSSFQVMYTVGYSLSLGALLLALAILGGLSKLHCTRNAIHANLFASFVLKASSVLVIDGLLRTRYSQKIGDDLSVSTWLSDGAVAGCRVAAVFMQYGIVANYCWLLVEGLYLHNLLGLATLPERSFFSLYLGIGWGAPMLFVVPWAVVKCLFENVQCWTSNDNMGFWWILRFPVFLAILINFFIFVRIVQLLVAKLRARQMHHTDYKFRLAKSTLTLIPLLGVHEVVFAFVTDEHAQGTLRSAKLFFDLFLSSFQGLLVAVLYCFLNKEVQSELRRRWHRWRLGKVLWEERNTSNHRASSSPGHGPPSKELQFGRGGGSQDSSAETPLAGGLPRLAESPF
row,SMILES,pIC50
1,N#Cc1ccc(-c2nc(-c3ccncc3)c(-c3ccc(F)cc3)[nH]2)cc1,6.68
2,Brc1ccc(-c2nc(-c3ccncc3)c(-c3ccccc3)[nH]2)cc1,7.40
3,Fc1ccc(-c2[nH]c(-c3ccc(I)cc3)nc2-c2ccncc2)cc1,7.00
4,Fc1ccc(-c2nc(-c3ccc(Cl)cc3)[nH]c2-c2ccncc2)cc1,7.10
5,Fc1ccc(-c2[nH]c(-c3cccc4ccccc34)nc2-c2ccncc2)cc1,6.47
6,Clc1ccc(-c2nc(-c3ccncc3)c(-c3ccccc3Oc3ccccc3)[nH]2)cc1,6.82
7,Clc1ccc(-c2nc(-c3ccc(I)cc3)c(-c3ccncc3)[nH]2)cc1,6.85
8,Clc1ccc(-c2nc(-c3ccncc3)c(-c3ccc(Oc4ccccc4)cc3)[nH]2)cc1,6.60
9,Cc1cc(-c2[nH]c(-c3ccc(Cl)cc3)nc2-c2ccc(F)cc2)ccn1,7.30
10,CCCOc1ccc(-c2[nH]c(-c3ccc(Cl)cc3)nc2-c2ccncc2)c(OCCC)c1,5.62
11,Cc1ccc(-c2nc(-c3ccc(F)cc3)c(-c3ccncc3)[nH]2)cc1,7.04
12,Oc1ccc(-c2[nH]c(-c3ccc(Br)cc3)nc2-c2ccccc2)cc1,7.00
13,Cc1cnccc1-c1nc(-c2ccc(Cl)cc2)[nH]c1-c1ccc(F)cc1,7.70
14,Fc1ccc(-c2[nH]c(-c3ccc(Br)s3)nc2-c2ccncc2)cc1,6.96
15,Brc1ccc(-c2nc(-c3ccccc3)c(-c3ccccc3)[nH]2)cc1,5.66
16,Clc1ccc(-c2nc(-c3ccncc3)c(-c3ccc(Cl)cc3)[nH]2)cc1,7.64
17,Clc1ccc(-c2nc(-c3ccc(-c4ccccc4)cc3)c(-c3ccncc3)[nH]2)cc1,5.48
18,Fc1ccc(-c2[nH]c(-c3cccc(Br)c3)nc2-c2ccncc2)cc1,6.82
19,CSc1ccc(-c2nc(-c3ccncc3)c(-c3ccc(F)cc3)n2C)cc1,6.07
20,Fc1ccc(-c2[nH]c(-c3ccc(-c4ccccc4)cc3)nc2-c2ccncc2)cc1,6.52
21,Clc1ccc(-c2nc(-c3ccncc3)c(-c3cccc(Oc4ccccc4)c3)[nH]2)cc1,6.66
22,CC(C)c1ccc(-c2nc(-c3ccc(F)cc3)c(-c3ccncc3)[nH]2)cc1,6.55
23,Fc1ccc(-c2[nH]c(-c3ccc(Br)o3)nc2-c2ccncc2)cc1,6.72
24,Fc1ccc(-c2[nH]c(-c3ccccc3Br)nc2-c2ccncc2)cc1,7.04
25,Fc1ccc(-c2nc(-c3ccc(Br)cc3)[nH]c2-c2ccncc2)cc1,6.80
26,Clc1ccc(-c2nc(-c3cccc(-c4ccccc4)c3)c(-c3ccncc3)[nH]2)cc1,6.23
27,Fc1ccc(-c2[nH]c(CCc3ccccc3)nc2-c2ccncc2)cc1,6.92
28,CSc1ccc(-c2nc(-c3ccc(F)cc3)c(-c3ccncc3)o2)cc1,6.03
29,CSc1ccc(-c2nc(-c3ccc(F)cc3)c(-c3ccncc3)n2C)cc1,6.28
